In publication PMC6381024, “Probing Anti-inflammatory Properties Independent of NF-κB Through Conformational Constraint of Peptide-Based Interleukin-1 Receptor Biased Ligands” (Frontiers in Chemistry, 2019):
“Also recorded” adds a separate entry of the source.

Legend:
pregnant CD-1 mice = experiment: LPS-induced preterm birth (PTB) model in mice; format: in vivo, mouse; parameters: key to In vivo PTB (heatmap grade of efficacy): 0: No effect; No effect 01234 Maximum inhibition/efficacy; No effect 01234 Maximum inhibition/efficacy; No effect 01234 Maximum inhibition/efficacy; 4: Maximum inhibition/efficacy; conditions: for In vivo PTB (heatmap grade of efficacy): LPS 10 μg i.p. at G16.5, peptide 2 mg/kg/day s.c. every 12 h; for Activity in delaying labor in the PTB model: LPS i.p. at G16.5, 2 mg/kg/day s.c.
Description: Timed-pregnant CD-1 mice at 16.5 days of gestation (G16.5) were anesthetized with 2% isoflurane and received an intraperitoneal injection of LPS (n = 4 per group, a single dose of 10 μg) (Nadeau-Vallée et al., [2015], and Kakinuma et al., [1997]). A dosage of 2 mg/kg/day of peptide 1, 5, or 6 or vehicle was injected subcutaneously in the neck, every 12 h until delivery. On G16.5, a dose of 1 mg/kg was injected 30 min before stimulation with LPS (to allow distribution of drugs to target tissues) and 1 mg/kg was injected 12 h after stimulation (n = 4 each treatment). Mice delivery was assessed every hour until term (G19–G19.5). A mouse is considered as delivering prematurely if the first pup is delivered earlier than G18.5.
Figure 9 The effects of peptides 1, 5, and 6 on prevention of PTB. (A) Schematic of the CD-1 mouse PTB model. In brief, pregnant dams on day 16.5 of gestation (G16.5) were subcutaneously pretreated with peptides 1, 5, and 6 or vehicle, followed by LPS, and observed for delivery of pups. A dam was considered as delivering preterm if at least one pup was delivered before G18.5. (B) The rates of PTB in dams treated with peptides 1, 5, and 6 are grouped into (3R)- (left) and (3S)- (right) derivatives; n = 4–5 dams per treatment group.

COX2 = experiment: qPCR of IL-1β-induced COX-2 (PTGHS2) expression in HEK-Blue IL-33/IL-1β cells; format: cell-based, human; parameters: key to qPCR COX2 (heatmap grade of inhibition): 0: No effect; No effect 01234 Maximum inhibition/efficacy; No effect 01234 Maximum inhibition/efficacy; No effect 01234 Maximum inhibition/efficacy; 4: Maximum inhibition/efficacy; conditions: for qPCR COX2 (heatmap grade of inhibition): HEK-Blue cells, peptide 10^-6 M or Kineret 1.0 mg/mL 30 min, then IL-1β 100 ng/mL 4 h (legend: overnight); for Suppression of COX2 transcription: HEK blue cells, 10^-6 M pre-treatment, IL-1β stimulation
Description: HEK-Blue IL-33/IL-1β cells were purchased from InvivoGen (San Diego, CA) and used at passages under 15. HEK-Blue cells were cultured in DMEM growth medium supplemented with 10% serum, 50 U/mL penicillin, […] streptomycin, […] zeocin, and […] hygromycin. Cells were grown in regular conditions (37°C, 5% CO2). Cells were serum starved overnight and treated with 100 ng/mL IL-1β for 4 h. Cells were pre-incubated for 30 min with peptides 1, 5, or 6 (10^−6M) or Kineret (1.0 mg/mL) prior to the experiments to reach equilibrium (n = 4 each treatment). Cells were harvested and incubated for 5 min in RIBOzol (AMRESCO). RNA was extracted according to manufacturer's protocol and RNA concentration and integrity were measured with a NanoDrop 1,000 spectrophotometer. A total of 500 ng RNA was used to synthetize cDNA using iScript Reverse Transcription SuperMix (Bio-Rad, Hercules, CA). Quantitative gene expression analysis was performed on Stratagene MXPro3000 (Stratagene) with SYBR Green Master Mix (Bio-Rad). Gene expression levels were normalized to 18S universal primer (Ambion Life Technology, Burlington ON, Canada). Genes analyzed include IL1β, IL6, and PTGHS2 [Prostaglandin H synthetase 2 or cyclooxygenase-2 (COX-2)]. Data are representative of 3 experiments (each with n = 4 per treatment group).
Figure 8 The effects of peptides 1, 5, and 6 on the expression of pro-inflammatory genes. HEK-Blue cells were pre-treated with peptides 1, 5, and 6 as above and stimulated with IL-1β overnight. qPCR was performed on cell lysates using 18S rRNA as internal control. Graphs are sorted in columns by gene of interest (COX-2, IL-1β, or IL-6) and rows by peptide configuration [(3R) or (3S)]. Results are representative of an average of 3 independent experiments (each with n = 4 per treatment group) and are expressed as a fold-change of the non-stimulated control: ^*p < 0.05, ^**p < 0.01, ^***p < 0.001, ^****p < 0.0001 compared to group treated only with IL-1β. Treatment groups that are not labeled with asterisks are statistically non-significant compared to group treated only with IL-1β.

IL-1R = experiment: Radioligand displacement of [125I]-peptide 1 in RAW-Blue macrophage cells; format: binding; conditions: for Percentage of displacement of [125I]-1, relative to unlabeled peptide 1, ±SEM: 100 μM cold peptide pre-incubated 20 min, then 600 nM [125I]-peptide 1 for 2 h at 37°C, gamma counter, mean ± SEM, three independent experiments
Description: Displacement of radiolabeled peptide 1 was performed as described previously (Quiniou et al., [2008]). Briefly, RAW-Blue macrophage cells (InVivogen; San Diego, CA) were pre-incubated for 20 min with 100 μM of non-radiolabeled (“cold”) peptide 1, 5, or 6 followed by incubation for 2 h at 37°C with [^125I]-peptide 1 at 600 nM concentration to ensure maximal specific binding (Quiniou et al., [2008]). Cells were washed four times with PBS buffer and lysed with 0.1 N NaOH/0.1% Triton X-100. Bound radioactivity was measured on cell lysates with a Hidex AMG gamma counter (Hidex; Turku Finland). Data are representative of three independent experiments.
Peptide 1 is known to bind to IL-1R (Quiniou et al., [2008]). To determine if the Agl and Hgl derivatives occupied the same binding site as peptide 1, a radio-ligand displacement assay was used to determine the extent to which peptides 5 and 6 displaced radiolabeled 1.

Row | Substance | In vivo PTB (heatmap grade of efficacy) (pregnant CD-1 mice) | qPCR COX2 (heatmap grade of inhibition) (COX2) | Suppression of COX2 transcription (COX2) | Percentage of displacement of [125I]-1, relative to unlabeled peptide 1, ±SEM (IL-1R) [%] | Activity in delaying labor in the PTB model (pregnant CD-1 mice) | Capacity to displace [125I]-1 compared to cold unlabeled peptide 1 (IL-1R; 100 μM cold peptide, 600 nM [125I]-peptide 1)
1 | Kineret: FDA-approved recombinant IL-1 receptor antagonist | 0 | 4 |  |  |  | 
2 | H-D-Arg-D-Tyr-(R)-Agl-(S)-Val-D-Glu-D-Leu-D-Ala-NH2 [[(3R)-Agl^3-(S)-Val^4]-1] | 0 | 1 | ability to suppress the transcription of all three genes was lost | 120.7 ± 15.69 |  | 
3 | H-D-Arg-D-Tyr-D-Thr-D-Val-D-Glu-D-Leu-D-Ala-NH2 [Peptide 1] | 4 | 4 | strong suppression of transcription of all three genes |  |  | 
4 | H-D-Arg-D-Tyr-(3R,4S)-Hgl-(S)-Val-D-Glu-D-Leu-D-Ala-NH2 [[(3R,4S)-Hgl^3-(S)-Val^4]-1] | 2 | 4 |  | 58.63 ± 13.45 |  | 
5 | H-D-Arg-D-Tyr-(3R,4S)-Hgl-D-Val-D-Glu-D-Leu-D-Ala-NH2 [[(3R,4S)-Hgl^3]-1] | 4 | 4 |  | 32.13 ± 16.94 | best activity | significantly lower (p = 0.0011) ability to compete with radiolabeled peptide 1
6 | H-D-Arg-D-Tyr-(3R,4R)-Hgl-(S)-Val-D-Glu-D-Leu-D-Ala-NH2 [[(3R,4R)-Hgl^3-(S)-Val^4]-1] | 0 | 4 |  | 82.12 ± 14.12 |  | 
7 | H-D-Arg-D-Tyr-(3S,4R)-Hgl-D-Val-D-Glu-D-Leu-D-Ala-NH2 [[(3S,4R)-Hgl^3]-1] | 4 | 4 |  | 78.64 ± 21.22 | best activity | 
8 | H-D-Arg-D-Tyr-(R)-Agl-D-Val-D-Glu-D-Leu-D-Ala-NH2 [[(3R)-Agl^3]-1] | 4 | 3 |  | 83.55 ± 9.02 | high potency; also recorded: best activity | 
9 | H-D-Arg-D-Tyr-(3R,4R)-Hgl-D-Val-D-Glu-D-Leu-D-Ala-NH2 [[(3R,4R)-Hgl^3]-1] | 0 | 4 |  | 104.6 ± 6.826 |  | 
10 | H-D-Arg-D-Tyr-(S)-Agl-(S)-Val-D-Glu-D-Leu-D-Ala-NH2 [[(3S)-Agl^3-(S)-Val^4]-1] | 0 | 1 | ability to suppress the transcription of all three genes was lost | 102.7 ± 8.637 |  | 
11 | H-D-Arg-D-Tyr-(S)-Agl-D-Val-D-Glu-D-Leu-D-Ala-NH2 [[(3S)-Agl^3]-1] | 4 | 4 |  | 106.6 ± 12.39 | high potency; also recorded: best activity | 
